Test results from patent US20160113895A1, “Novel Use of Adapalene in Treating Esophageal Cancer and Gastrointestinal Stromal Tumor” (Biodelight Biotech Inc., priority 2013, published 2016).

Experiments:
A549 = assay: 2D cell proliferation assay (Alamar Blue), A549; format: cell-based, human; conditions: Homo sapiens; 2D, A549, 72 h; read-out: IC50
From the text: Nsl-8 was subjected to 2D cell proliferation assays using four NSCLC cell lines (A549 (human adenocarcinomic alveolar basal epithelial cells with k-ras gene mutation), H1299 (human non-small cell lung carcinoma cell line with p53 mutation), H460 (human non-small cell lung carcinoma cell line with k-ras gene mutation), and HCC827 (human NSCLC cells with EGFR mutation of deletion from E746 to A750)) and the results were presented in Table 2. There were eight concentrations used for each drug for determining its IC50. […]. Actinomycin D was a chemotherapeutic drug simply used as a quality control for all the experiments.
In the 2D cell proliferation assay, cells were cultured in DMEM containing 10% FCS and Penicillin/Streptomycin. For the assays, cells were seeded in 150 μL medium on a 96-well cell culture plate and incubated at 37° C. overnight before the compounds were added. Compounds were prepared as predilution which was 16 fold concentrated to the final assay concentration. A day after cell seeding, 10 μL of prediluted compounds was added to the cells (1:16 dilution). Treatment of cells with 0.1% DMSO or 1% DMSO (for the two top concentrations of nsl-8) and 1.0E-05 M Staurosporine was served as high control (100% viability) and low control (0% viability), respectively. Measurement of the impact of compounds on cell viability was performed as follows: 5000 cells (A549 and HCC827) or 2500 cells (H1299 and H460) were seeded in the inner wells of 96-well-plates in 150 μL complete medium. Next day, compounds were added to the medium to reach the final concentration and then incubated at 37° C. in 5% or 10% CO2 depending on the medium for 72 h. Subsequently 10 μL Alamar Blue reagent was added and fluorescence at 590 nm was measured after 5 h incubation at 37° C. in 5% CO2 using a fluorometer.
Raw data were converted into percent cell viability relative to high control (solvent 0.1% DMSO or 1% DMSO for the two top concentrations of drug nsl-8) and low control (1.0E-05 M Staurosporine), which were set to 100% and 0%, respectively.

[1] = biological target: T1, recombinant wild type human EGFR kinase domain (Homo sapiens, UniProt P00533); assay: Radiometric protein kinase enzymatic assay; format: biochemical; conditions: text value (FIG. 1)
T1 construct: A recombinant wild type human EGFR kinase domain expressed in Sf9 insect cells; GST; made in house; host or cells: Sf9 insect cells
T1 sequence (P00533 712-979 limits assumed): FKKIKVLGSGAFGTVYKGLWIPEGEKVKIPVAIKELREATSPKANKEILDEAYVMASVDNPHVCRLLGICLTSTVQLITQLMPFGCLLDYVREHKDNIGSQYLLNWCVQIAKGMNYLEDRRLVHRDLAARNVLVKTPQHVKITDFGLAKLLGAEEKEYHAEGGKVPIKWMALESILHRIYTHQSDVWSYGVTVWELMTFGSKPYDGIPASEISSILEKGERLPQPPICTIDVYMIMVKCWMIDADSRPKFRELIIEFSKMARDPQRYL
From the text: Except Tarceva® or Erlotinib which was purchased from LC Laboratories, all the screened compounds were purchased from Sigma-Aldrich. A recombinant wild type human EGFR kinase domain expressed in Sf9 insect cells as a GST-fusion protein was used in the enzymatic assay. The recombinant protein was purified by a GSH-affinity column and the purity of the protein was examined by SDS-PAGE/Coomassie staining and the identity was checked by mass spectroscopy. A radiometric protein kinase assay was used for measuring the kinase activity of the EGFR protein kinase. All the assays were performed in 96-well FlashPlates™ from PerkinElmer (Boston, Mass., USA) in a 50 µL, reaction volume. […] The reaction cocktails were incubated at 30° C. for 60 minutes. […] Incorporation of ^33Pi was determined with a microplate scintillation counter. […]
The median value of the counts in column 1 (n=8) of each assay plate was defined as “low control”. This value reflects unspecific binding of radioactivity to the plate in the absence of a protein kinase but in the presence of the substrate. […] The residual activity (in %) for each well of a particular plate was calculated by using the following formula: […]
The residual activities for each concentration and the drug IC50 values were calculated using GraphPad Prism software. […]

[2] = system: four NSCLC cell lines (A549, H1299, H460, HCC827); assay: 3D cell proliferation assay, summary over the NSCLC cell lines; format: cell-based; conditions: Homo sapiens, span over the four NSCLC cell lines
Protocol: Drug nsl-8 was further subjected to a 3D cell proliferation assay for assessing its potential in inhibiting the growth of NSCLC tumors. The same four NSCLC cell lines used in 2D proliferation assays were grown in soft agar and the drug was added after the agar has solidified. The drug added cells were then incubated several days until colonies have formed in the solvent control. Subsequently, Alamar Blue which was a cell viability reagent was added and the corresponding fluorescence released was measured as an indirect quantification of colony growth in soft agar.
For each cell line, some 96 well culture plates were prepared. 100 μL of the soft agar bottom layer (0.6% final concentration in complete medium) was poured and left to solidify. 50 μL of the soft agar top layer (0.4% final concentration) containing the corresponding cells and cell number were then added on top, solidified and such 96 well plates were incubated overnight at 37° C. in 10% CO2. Next day, drugs were added at indicated final concentrations into the inner wells of the plate. Subsequently, the assays were incubated in cell culture incubators for the indicated period of time. Finally, the assays were developed using Alamar Blue and upon 3-5 h of incubation at 37 ° C. fluorescence intensity was determined (excitation: 560 nm, emission: 590 nm). […]

In the case of `COc1ccc(-c2ccc3cc(C(=O)O)ccc3c2)cc1C12CC3CC(CC(C3)C1)C2` [nsl-8, 6-[3-(1-adamantyl)-4-methoxyphenyl]-2-naphthalenecarboxylic acid], the IC50 (A549) is reported as 5.4 µM, the IC50 [1] is reported as 0.515 µM and the IC50 [2] is reported as 0.99 to 13 µM.
